Source: patent US12473250B2, “Molecular design of new antibiotics and antibiotic adjuvants against MCR strains” (priority 2019, dated 2025)
Converted amounts (≈) assume the structure as drawn.

How the values were obtained:
Format in all cases: cell-based
various pathogens = experiment: organism not typed
Method: (§1) The MICs of the individual drugs and LC compound in combinations were determined using the broth microdilution technique as recommended by the CLSI whereby the two anti-microbial agents were added in an equal amount. (e.g.: 50 μL of Colistin: 50 μL of LC compounds). Diluted media containing compounds and antibiotics will be serially diluted 2-fold, and LC compounds and antibiotics alone or in combination will be assayed at fixed synergy concentration. In all cases, the lowest concentration at which no visible growth occurred was be recorded to be the MIC value of individual and combined antibacterial agents. The results were obtained after 24 hours of incubation.
Using the combination of LC100 and colistin, the activity of a broad range of strains was further tested (Table 7).

[1] = test system: colistin resistant MCR (+) E. Coli strains; experiment: Synergy study: colistin MIC in the presence of compound; conditions: compound at 12.5 μg
Method: as §1

[2] = test system: colistin resistant MCR (+) E. Coli strains; experiment: MIC, broth microdilution, compound alone; conditions: compound alone
Method: MIC experiments of the antimicrobial agents were determined by a modified broth microdilution method in accordance with the Clinical and Laboratory Standards Institute (CLSI) guidelines using 96 well culture plates. In brief, serial dilutions of all plates were prepared at different concentrations (μg). The inoculum suspension was prepared by adding isolated colonies from a 18-20 hours on TSA plate into phosphate buffer (0.31 mM, pH 7.2) or in water for injection (BBraun) and adjusting the suspension to a turbidity equivalent to 0.5 McFarland Standard. Each well contained a final bacterial concentration of approximately 5×10^5 colony forming units (CFU)/mL. The plate was covered and incubated at 35° C. for 24 hours. […] For the microdilution plates, turbidity in wells can be measured at OD600 using TECAN infinite M200Pro. MIC was determined as […] concentration that gives a 99 percent inhibition.

[3] = Escherichia coli, 6083655967 [MCR 1+, E. Coli]
[4] = Escherichia coli, 6093560257 [MCR 1+, E. Coli, NDM-1]
[5] = Escherichia coli, 7023446108 [MCR 1−, E. Coli]
[6] = Escherichia coli, 7103531927 [MCR 1+, E. Coli, KPC+]
[7] = Escherichia coli, 7113636863 [MCR 1+, E. Coli, NDM-1]
[8] = Escherichia coli, E. Coli CRE 11804
[9] = Escherichia coli, E. Coli CRE 17232
[10] = Escherichia coli, E. Coli CRE 17528

Row | SMILES | MIC (various pathogens; [3]) | MIC (various pathogens; [4]) | MIC (various pathogens; [5]) | MIC (various pathogens; [6]) | MIC (various pathogens; [7]) | MIC (various pathogens; [8]) | MIC (various pathogens; [9]) | MIC (various pathogens; [10]) | MIC (various pathogens; KLPN CRE 7955) | MIC (various pathogens; KLPN CRE 16260) | MIC (various pathogens; KLPN CRE 27025) | MIC (various pathogens; KLPN CRE 55301) | MIC (various pathogens; PAE DM 23155) | MIC (various pathogens; PAE DM 23257) | MIC (various pathogens; PAE DM 23376) | MIC (various pathogens; PAE DR 4877) | MIC (various pathogens; PAE DR 5790) | MIC (various pathogens; PAE DU 14476) | MIC (various pathogens; PAE DM 4150) | also measured
1 | COc1c(N2CCNC(C)C2)c(F)cc2c(=O)c(C(=O)O)cn(C3CC3)c12 (centres unmarked) [Gatifloxacin] | 12.5 µg/mL | 0.78 µg/mL | 3.12 µg/mL | < 0.0975 µg/mL | 50 µg/mL | < 0.015 µg/mL | 12.5 µg/mL | 25 µg/mL | 100 µg/mL | 3.12 µg/mL | 3.12 µg/mL | 25 µg/mL | 1.56 µg/mL | 0.78 µg/mL | 1.56 µg/mL | 25 µg/mL | 25 µg/mL | 25 µg/mL |  | MIC (various pathogens; ACBA 1003 (CI)): 12.5 µg/mL; MIC (various pathogens; ACBA 1004 (CI)): 12.5 µg/mL; MIC (various pathogens; ACBA 1005 (CI)): 6.25 µg/mL; MIC (various pathogens; ACBA 1006 (CI)): 6.25 µg/mL; MIC (various pathogens; ACBA 1010 (CI)): < 0.098 µg/mL; MIC (various pathogens; Escherichia coli, ATCC8739, E. Coli ATCC 8739): 0.024 µg/mL; MIC (various pathogens; Escherichia coli, ATCC10536, E. Coli ATCC 10536): 0.012 µg/mL; MIC (various pathogens; Escherichia coli, ATCC25922, E. Coli ATCC 25922): 0.012 µg/mL; MIC (various pathogens; Escherichia coli, E. Coli CRE 19211): 25 µg/mL; MIC (various pathogens; Escherichia coli, E. Coli CRE 34685): 0.195 µg/mL; MIC (various pathogens; KLPN ATCC 4352): < 0.049 µg/mL; MIC (various pathogens; KLPN ATCC 10031): < 0.049 µg/mL; MIC (various pathogens; KLPN ATCC 27736): < 0.049 µg/mL; MIC (various pathogens; KLPN CRE 15588): 25 µg/mL; MIC (various pathogens; PAE ATCC 9027): 0.78 µg/mL; MIC (various pathogens; PAE ATCC 27853): 1.56 µg/mL
2 | C[C@@H](O)[C@H]1C(=O)N2C(C(=O)O)=C(S[C@@H]3CN[C@H](C(=O)Nc4cccc(C(=O)O)c4)C3)[C@H](C)[C@H]12 [Ertapenem] |  | 25 µg/mL |  | 12.5 µg/mL | > 50 µg/mL | 25 µg/mL | 1.56 µg/mL | > 25 µg/mL | > 25 µg/mL | > 50 µg/mL |  | > 25 µg/mL | 12.5 µg/mL | > 25 µg/mL | > 25 µg/mL | > 25 µg/mL | > 25 µg/mL | > 25 µg/mL | > 25 µg/mL | 
3 | CCN(CC)CCCCOc1ccc(C2COc3c(ccc4c3C=CC(C)(C)O4)C2)c(OCCCCN(CC)CC)c1 (centres unmarked) [LC105] |  |  |  |  |  |  |  |  |  |  |  |  |  |  |  |  |  |  |  | Colistin MIC in the presence of the compound ([1]; strain 6075066346, MCR(+)): 1.56 µg/mL; Colistin MIC in the presence of the compound ([1]; strain 6083655967, MCR(+)): 0.78 µg/mL; Colistin MIC in the presence of the compound ([1]; strain 6103645107, MCR(+)): 1.56 µg/mL; Colistin MIC in the presence of the compound ([1]; strain 6123520276, MCR(+)): 1.56 µg/mL; Colistin MIC in the presence of the compound ([1]; strain 7013177695, MCR(+)): 0.78 µg/mL; Colistin MIC in the presence of the compound ([1]; strain 7023436560, MCR(+)): 1.56 µg/mL; Colistin MIC in the presence of the compound ([1]; strain 7023444207, MCR(+)): 0.78 µg/mL; MIC ([2]; strain 6075066346, MCR (+)): 25 µg/mL (≈ 43.2 µM); MIC ([2]; strain 6083655967, MCR (+)): 25 µg/mL (≈ 43.2 µM); MIC ([2]; strain 6103645107, MCR (+)): 25 µg/mL (≈ 43.2 µM); MIC ([2]; strain 6123520276, MCR (+)): 25 µg/mL (≈ 43.2 µM); MIC ([2]; strain 7013177695, MCR (+)): 25 µg/mL (≈ 43.2 µM); MIC ([2]; strain 7023436560, MCR (+)): 25 µg/mL (≈ 43.2 µM); MIC ([2]; strain 7028444207 (Table 1b), MCR (+)): 25 µg/mL (≈ 43.2 µM)
4 | C[C@@H](O)[C@H]1C(=O)N2C(C(=O)O)=C(S[C@@H]3CN[C@H](CNS(N)(=O)=O)C3)[C@H](C)[C@H]12 [Doripenem] | < 0.0975 µg/mL | 50 µg/mL | 0.0975 µg/mL | 1.56 µg/mL | 25 µg/mL | > 25 µg/mL |  | 1.56 µg/mL | > 25 µg/mL | > 50 µg/mL | 25 µg/mL | 1.56 µg/mL | 0.195 µg/mL | 0.78 µg/mL | 0.78 µg/mL | 0.78 µg/mL |  | > 25 µg/mL | 6.25 µg/mL | MIC (various pathogens; Escherichia coli, 6123520276 [MCR 1+, E. Coli]): < 0.0975 µg/mL; MIC (various pathogens; Escherichia coli, 7023436560 [MCR 1+, E. Coli]): < 0.0975 µg/mL; MIC (various pathogens; Escherichia coli, 7023444207 [MCR 1+, E. Coli]): < 0.0975 µg/mL; MIC (various pathogens; Escherichia coli, 7033607097 [MCR 1−, E. Coli]): < 0.0975 µg/mL; MIC (various pathogens; PAE DR 5790, ¼ MHB): 12.5 µg/mL
